Consider 33 compounds from patent US10702528B2, “Hepatitis B antiviral agents” (Enanta Pharmaceuticals, Inc., priority 2015, dated 2020).

SMILES strings stand for the structures. Read-outs that look alike come from different tables or passages of the source.

For one data set, the system named is HBV. The data set is described as follows: HepAD38 antiviral screen: reduction of viral product accumulation (virion DNA by qPCR; HBsAg/HBeAg ELISA). It is filed as cell-based. As to conditions: Hepatitis B virus. As for the experimental part:
(§1) Methods: HepAD38 cells are maintained as previously reported (Ladner et al, Antimicrob. Agents Chemother. 1997, […], 1715). Briefly, cells are passaged upon attaining confluency in DMEM/F12 media in the presence of 10% FBS, Penn/Strep, 250 μg/mL G418, and 1 μg/ml tetracycline. Novel compounds are screened by first washing cells three times with PBS to remove tetracycline, and plating in 96 well plates at 35,000 cells/well. Compounds dissolved in DMSO are then diluted 1:200 into wells containing cells. Five days after compound addition, material is harvested for analysis. For an extended 8 day analysis, cells are plated and treated as described above, but media and compound are refreshed on d2 and d5 post initial treatment.
On harvest day, virion DNA is obtained by lysing with Sidestep Lysis and Stabilization Buffer and then quantified via quantitative real time PCR. Commercially available ELISA kits are used to quantitate the viral proteins HBsAg (Alpco) or HbeAg (US Biological) by following the manufacturer's recommended protocol after diluting samples to match the linear range of their respective assays. Irrespective of readout, compound concentrations that reduce viral product accumulation in the cell lysates or supernatants by relative to no drug controls (EC50) are reported; EC50 ranges are as follows: A<1 μM; B 1-10 μM; C>10 μM.
(In general: Quantitative PCR measures a nucleic acid by following its amplification.)

A short description of data set [1]: Compound toxicity by ATPlite 1 Step (total ATP levels) in HepAD38 cells. The format is cell-based. As to conditions: human, day of harvest, concentration reducing total ATP levels by 50% relative to no drug controls. How it is done:
as §1
Additionally, on day of harvest, compound toxicity is evaluated by treating cells with ATPlite 1 Step according to the manufacturer's protocol. Compound concentrations that reduce total ATP levels in wells by 50% relative to no drug controls (CC50) are reported; CC50 ranges are as follows: A>30 μM; B 10-30 μM; C<10 μM.

[2] abbreviates: 120 h, HepAD38 cells, harvest five days after compound addition, reduction of viral product accumulation relative to no drug controls, read-out: HepAD38 EC50.

One may read the EC50 as the concentration giving half of the maximal effect. By CC50 is commonly meant the concentration at which the toxic effect on the cells reaches its halfway point. Turning to `CCOC(=O)C1=C(C)NC(C(=O)OC)=NC1c1ccc(F)cc1Cl` (stereo not drawn) [Example 31], the concentration giving a half-maximal response (EC50) with HBV (setting [2]) is 1 to 10 µM. For the same compound, the CC50 in data set [1] is more than 30 µM.
Turning to `CCOC(=O)C1=C(CN2CC(F)(F)C[C@H]2C(=O)NS(C)(=O)=O)NC(c2nccs2)=NC1c1ccc(F)cc1Cl` (stereo partly drawn) [Example 2], in the data set on HBV (setting [2]), the EC50 lay in the range of 1 to 10 µM. In addition, the 50% cytotoxic concentration (CC50) in data set [1] was more than 30 µM.
For `CC1=C(c2ccccn2)C(c2ccc(F)cc2Cl)N=C(c2nccs2)N1` (racemic) [Example 19], in that order: 1 to 10 µM and more than 30 µM.
The matching figures for `CC1=C(c2ccn(C)n2)[C@H](c2ccc(F)cc2Cl)N=C(c2nccs2)N1` (single isomer, unassigned) [Example 16b]: less than 1 µM and more than 30 µM.
Regarding `COCC1=C(C)NC(c2nccs2)=NC1c1ccc(F)cc1Cl` (racemic) [Example 10], the EC50 with HBV (setting [2]) fell in the range of 1 to 10 µM. The CC50 in data set [1] is more than 30 µM.
For `CC1=C(c2ccn(C)n2)C(c2ccc(F)cc2Cl)N=C(c2nccs2)N1` (racemic) [Example 16], in that order: less than 1 µM and more than 30 µM.
With `CNS(=O)(=O)C1=C(C)NC(c2nccs2)=NC1c1ccc(F)cc1Cl` (stereo not drawn) [Example 28], the EC50 in the data set on HBV (setting [2]) was more than 10 µM. In data set [1], this compound had a half-maximal cytotoxic concentration (CC50) of more than 30 µM.
For `CC1=C(C#N)C(c2ccc(F)cc2Cl)N=C(c2nccs2)N1` (stereo not drawn) [Example 32], in that order: less than 1 µM and more than 30 µM.
For `CC1=C(c2ccn(C)n2)[C@@H](c2ccc(F)cc2Cl)N=C(c2nccs2)N1` (single isomer, unassigned) [Example 16a], the EC50 with HBV (setting [2]) is less than 1 µM. The compound further came in with a CC50 in data set [1] of more than 30 µM.
`Cn1ccc(C2=C(CN=[N+]=[N-])NC(c3nccs3)=NC2c2ccc(F)cc2Cl)n1` (stereo not drawn) [Example 42]: the EC50 with HBV (setting [2]) is less than 1 µM. This compound also registered a CC50 in data set [1] of more than 30 µM.
The matching figures for `CC1=C(C(=O)NS(C)(=O)=O)C(c2ccc(F)cc2Cl)N=C(c2nccs2)N1` (racemic) [Example 21]: more than 10 µM and more than 30 µM.
`CCOC(=O)C1=C(CN2CC(F)(F)C[C@H]2C#N)NC(c2nccs2)=NC1c1ccc(F)cc1Cl` (stereo partly drawn) [Example 3]: the EC50 with HBV (setting [2]) is less than 1 µM. The CC50 in data set [1] is more than 30 µM.
For `CC1=C(c2ncccn2)C(c2ccc(F)cc2Cl)N=C(c2nccs2)N1` (racemic) [Example 20], in that order: 1 to 10 µM and more than 30 µM.
The matching figures for `Cn1ccc(C2=CNC(c3nccs3)=NC2c2ccc(F)cc2Cl)n1` (stereo not drawn) [Example 36]: less than 1 µM and more than 30 µM.
Turning to `CC1=C(C(=O)N(C)S(C)(=O)=O)C(c2ccc(F)cc2Cl)N=C(c2nccs2)N1` (racemic) [Example 22], the EC50 in the data set with HBV (setting [2]) is more than 10 µM. Also, the CC50 in data set [1] was more than 30 µM.
For `CN(C)CC1=C(c2ccn(C)n2)C(c2ccc(F)cc2Cl)N=C(c2nccs2)N1` (stereo not drawn) [Example 37], in that order: more than 10 µM and 10 to 30 µM.
Regarding `CC1=C(c2cc(C)no2)C(c2ccc(F)cc2Cl)N=C(c2nccs2)N1` (racemic) [Example 15], the EC50 with HBV (setting [2]) is less than 1 µM. The compound also came in with a CC50 in data set [1] of more than 30 µM.
For `CC1=C(CO)C(c2ccc(F)cc2Cl)N=C(c2nccs2)N1` (racemic) [Example 9], in that order: 1 to 10 µM and more than 30 µM.
In the case of `CCOP(=O)(OCC)C1=C(C)NC(c2nccs2)=NC1c1ccc(F)cc1Cl` (racemic) [Example 26], the EC50 in the data set on HBV (HePAD38, 120 h, read-out: HepAD38 EC50 (μM)) is more than 10 µM. In data set [1], this compound yielded a CC50 of more than 30 µM.
Consider `CCOC(=O)[C@@H]1CC(F)(F)CN1CC1=C(C(=O)NS(C)(=O)=O)C(c2ccc(F)cc2Cl)N=C(c2nccs2)N1` (stereo partly drawn) [Example 4], for which the half-maximal effective concentration (EC50) in the data set with HBV (setting [2]) was more than 10 µM. In addition, in data set [1], the CC50 was more than 30 µM.
For the compound `Cn1ccc(C2=C(CC#N)NC(c3nccs3)=NC2c2ccc(F)cc2Cl)n1` (stereo not drawn) [Example 40], in the data set with HBV (setting [2]), the 50% effective concentration (EC50) lay in the range of 1 to 10 µM. In addition, in data set [1], the CC50 is more than 30 µM.
For `CCOC(=O)C1=C(C)NC(N2CCCC2)=NC1c1ccc(F)cc1Cl` (stereo not drawn) [Example 30], in that order: more than 10 µM and more than 30 µM.
Turning to `Cn1ccc(C2=C(CF)NC(c3nccs3)=NC2c2ccc(F)cc2Cl)n1` (stereo not drawn) [Example 43], in the data set on HBV (setting [2]), the EC50 was less than 1 µM. The compound also yielded a CC50 in data set [1] of more than 30 µM.
The matching figures for `CCOC(=O)[C@@H]1CC(F)(F)CC1CC1=C(C#N)C(c2ccc(F)cc2Cl)N=C(c2nccs2)N1` (stereo partly drawn) [Example 5]: 1 to 10 µM and more than 30 µM.
Take `CCOC(=O)[C@@H]1CC(F)(F)CN1CC1=C(c2ccn(C)n2)C(c2ccc(F)cc2Cl)N=C(c2nccs2)N1` (stereo partly drawn) [Example 39]: in the data set on HBV (setting [2]), the concentration for a half-maximal effect (EC50) is less than 1 µM. In data set [1], this compound came in with a cytotoxic concentration (CC50) of more than 30 µM.
For `CC1=C(c2ncco2)[C@H](c2ccc(F)cc2Cl)N=C(c2nccs2)N1` (single isomer, unassigned) [Example 13b], the concentration giving a half-maximal response (EC50) in the data set on HBV (setting [2]) was less than 1 µM. This compound showed a cytotoxic concentration (CC50) in data set [1] of more than 30 µM.
In the case of `CC1=C(c2ccnn2C)C(c2ccc(F)cc2Cl)N=C(c2nccs2)N1` (racemic) [Example 17], in the data set on HBV (setting [2]), the concentration for a half-maximal effect (EC50) is less than 1 µM. The same compound showed a cytotoxic concentration (CC50) in data set [1] of more than 30 µM.
`CC1=C(c2ccccc2)C(c2ccc(F)cc2Cl)N=C(c2nccs2)N1` (racemic) [Example 18]: the EC50 with HBV (setting [2]) was less than 1 µM. This compound also showed a CC50 in data set [1] of 10 to 30 µM.
The matching figures for `CCOC(=O)C1=C(CN2CCC[C@H]2C(=O)NS(C)(=O)=O)NC(c2nccs2)=NC1c1ccc(F)cc1Cl` (stereo partly drawn) [Example 1]: 1 to 10 µM and 10 to 30 µM.
For the compound `CC1=C(c2ncco2)[C@@H](c2ccc(F)cc2Cl)N=C(c2nccs2)N1` (single isomer, unassigned) [Example 13a], in the data set on HBV (setting [2]), the EC50 lay in the range of 1 to 10 µM. In data set [1], this compound returned a CC50 of more than 30 µM.
The matching figures for `CC1=C(c2nn[nH]n2)C(c2ccc(F)cc2Cl)N=C(c2nccs2)N1` (stereo not drawn) [Example 27]: more than 10 µM and more than 30 µM.
Regarding `CC1=C(c2ncco2)C(c2ccc(F)cc2Cl)N=C(c2nccs2)N1` (racemic) [Example 13], the EC50 with HBV (setting [2]) is less than 1 µM. For the same compound, the CC50 in data set [1] was more than 30 µM.
As to `CC1=C(c2nccn2C)C(c2ccc(F)cc2Cl)N=C(c2nccs2)N1` (stereo not drawn) [Example 33], the concentration for a half-maximal effect (EC50) in the data set with HBV (setting [2]) fell in the range of 1 to 10 µM. In addition, in data set [1], the 50% cytotoxic concentration (CC50) is more than 30 µM.
